# In the supplement of paper PMC12137928:
# Counter-ions that a name gives are not always drawn.
# Legend:
# [1] = tested on: HCT116; assay: efficacy (maximum % inhibition of viability vs DMSO); higher = more cytotoxic; details: 72 h
# How it was run: (§1)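 In 1536-well plates, 250 HCT116 cells per well were seeded and left for 5 h to attach. Luminescence from CellTiter-Glo was set against vehicle (0%) and positive control (-100%), and pattern correction was applied. IC50 and maximal efficacy come from four-parameter Hill fitting.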
# [2] = tested on: HCT116; details: 72 h
# How it was run: as §1
SMILES,IC50 cell viability ([2]; ICRF193 0 nM),IC50 cell viability ([2]; ICRF193 200 nM),efficacy ([1]; ICRF193 0 nM),efficacy ([1]; ICRF193 200 nM)
CN(C)C/C=C/C(=O)Nc1cc2c(Nc3ccc(F)c(Cl)c3)ncnc2cc1O[C@H]1CCOC1 [Afatinib (BIBW2992)],29.1 µM,18.3 µM,110%,130%
CO[C@H]1C(=O)[C@]2(C)[C@@H](OC)C[C@H]3OC[C@@]3(OC(C)=O)[C@H]2[C@H](OC(=O)c2ccccc2)[C@]2(O)C[C@H](OC(=O)[C@H](O)[C@@H](NC(=O)OC(C)(C)C)c3ccccc3)C(C)=C1C2(C)C [Cabazitaxel],> 45.8 µM,0.0058 µM,,65.5%
COc1cc(NS(C)(=O)=O)ccc1Nc1c2ccccc2nc2ccccc12 [Amsacrine],20.6 µM,20.6 µM,141%,128%
C=C[C@@H]1C[C@]1(NC(=O)[C@@H]1C[C@@H](Oc2ncc(OC)c3ccc(Cl)cc23)CN1C(=O)[C@@H](NC(=O)OC(C)(C)C)C(C)(C)C)C(=O)NS(=O)(=O)C1CC1,20.6 µM,20.6 µM,92.8%,92.4%
C[C@H]1c2cccc(O)c2C(=O)C2=C(O)[C@]3(O)C(=O)C(C(N)=O)=C(O)[C@@H](N(C)C)[C@@H]3[C@@H](O)[C@@H]21 [Doxycycline],16.4 µM,23.1 µM,41.6%,62.7%
CC[C@H](C)[C@@H]([C@@H](CC(=O)N1CCC[C@H]1[C@H](OC)[C@@H](C)C(=O)NCCc1ccccc1)OC)N(C)C(=O)[C@@H](NC(=O)[C@H](C(C)C)N(C)C)C(C)C [Auristatin PE],> 45.8 µM,0.00461 µM,,42.4%
COc1ccc(C(Cl)=C(c2ccc(OC)cc2)c2ccc(OC)cc2)cc1 [Chlorotrianisene],> 45.8 µM,23.1 µM,,45.8%
Oc1cc(Cl)ccc1Oc1ccc(Cl)cc1Cl [Triclosan],16.4 µM,18.3 µM,92.5%,95.2%
COc1c(-c2ccc3cc(NS(C)(=O)=O)ccc3c2)cc(-n2ccc(=O)[nH]c2=O)cc1C(C)(C)C [ABT-333],20.6 µM,25.9 µM,94.6%,102%
CCCCCCCCCCCC[N+](C)(C)CCOc1ccccc1 [Domiphen bromide],10.3 µM,8.2 µM,101%,90.4%
COc1ccc2cc3[n+](cc2c1OC)CCc1cc2c(cc1-3)OCO2 [Berberine],23.1 µM,10.3 µM,50.1%,56.1%
O=c1[nH]c2ccccc2n1C1CCN(CCCC(c2ccc(F)cc2)c2ccc(F)cc2)CC1 [Pimozide],18.3 µM,20.6 µM,102%,109%
COc1cc(N2CCC(N3CCN(C)CC3)CC2)ccc1Nc1ncc(Cl)c(Nc2ccccc2P(C)(C)=O)n1 [Brigatinib],20.6 µM,13 µM,82.6%,92.5%
CN(C)CCCN1c2ccccc2Sc2ccc(Cl)cc21 [Chlorpromazine],20.6 µM,29.1 µM,117%,93.2%
Cc1cc(C2=NOC(c3cc(Cl)cc(Cl)c3)(C(F)(F)F)C2)ccc1C(=O)NCC(=O)NCC(F)(F)F (stereo not drawn) [Fluralaner],18.3 µM,29.1 µM,96.5%,104%
Nc1nc(=S)c2[nH]cnc2[nH]1 [6-Thioguanine],3.66 µM,2.06 µM,97.5%,91.8%
CNCC[C@H](Oc1cccc2ccccc12)c1cccs1 [Duloxetine hydrochloride],18.3 µM,20.6 µM,93%,105%
COc1ccccc1OCCNCC(O)COc1cccc2[nH]c3ccccc3c12 (stereo not drawn) [Carvedilol tartrate],20.6 µM,29.1 µM,96.8%,102%
Cn1cnc([N+](=O)[O-])c1Sc1ncnc2[nH]cnc12 [Azathioprine],2.91 µM,3.66 µM,77.4%,85.9%
[O-][n+]1cccc(/C(Cl)=N/OC[C@H](O)CN2CCCCC2)c1 [Arimoclomol],> 45.8 µM,0.651 µM,,65.4%
Nc1nc(Cl)nc2c1ncn2[C@@H]1O[C@H](CO)[C@@H](O)[C@@H]1F [Clofarabine],0.146 µM,0.231 µM,45.9%,65.2%
CCCCCCCCCCCC[n+]1ccc2ccccc2c1 [2-Dodecylisoquinolinium tosylate],7.3 µM,4.61 µM,101%,103%
Cc1cc(Nc2ncc(Cl)c(Nc3ccccc3S(=O)(=O)C(C)C)n2)c(OC(C)C)cc1C1CCNCC1 [Ceritinib],18.3 µM,29.1 µM,108%,105%
Cc1c(-c2ccc(O)cc2)n(Cc2ccc(OCCN3CCCCCC3)cc2)c2ccc(O)cc12 [Bazedoxifene],> 45.8 µM,23.1 µM,,47.4%
Cc1cc(N)c2ccccc2[n+]1CCCCCCCCCC[n+]1c(C)cc(N)c2ccccc21 [Dequalinium dichloride],> 45.8 µM,2.98 µM,,55.3%

# Second part, led by results:
IC50 cell viability ([2]; ICRF193 0 nM),IC50 cell viability ([2]; ICRF193 200 nM),SMILES,efficacy ([1]; ICRF193 0 nM),efficacy ([1]; ICRF193 200 nM)
29.1 µM,20.6 µM,N[C@@H]1[C@H]2CN(c3nc4c(cc3F)c(=O)c(C(=O)O)cn4-c3ccc(F)cc3F)C[C@@H]12 [Trovafloxacin mesylate],52.4%,65.3%
18.3 µM,> 45.8 µM,Cc1ccc(Nc2nccc(N(C)c3ccc4c(C)n(C)nc4c3)n2)cc1S(N)(=O)=O [Pazopanib],56.3%,
3.26 µM,3.66 µM,OC[C@H]1O[C@@H](n2cnc3c(S)ncnc32)[C@H](O)[C@@H]1O [Thioinosine],95.1%,93.2%
18.3 µM,20.6 µM,C[C@@H]1C[C@H]2[C@@H]3CCC4=CC(=O)C=C[C@]4(C)[C@@]3(Cl)[C@@H](O)C[C@]2(C)[C@@]1(OC(=O)c1ccco1)C(=O)CCl [Mometasone furoate],102%,97.9%
> 45.8 µM,11.6 µM,CN1CCc2c(c3ccccc3n2Cc2ccccc2)C1 [MEBHYDROLIN],,41.4%
0.73 µM,1.46 µM,COc1cccc2c1C(=O)c1c(O)c3c(c(O)c1C2=O)C[C@@](O)(C(=O)CO)C[C@@H]3O[C@H]1C[C@H](N)[C@@H](O)[C@H](C)O1 [Epirubicin hydrochloride],91.9%,73.8%
> 45.8 µM,29.1 µM,CC[C@H](Nc1ncnc2[nH]cnc12)c1nc2cccc(F)c2c(=O)n1-c1ccccc1 [Idelalisib],,42.6%
23.1 µM,23.1 µM,O=C(CCCN1CCN(c2ccc(F)cc2)CC1)NC1c2ccccc2CSc2ccccc21 (stereo not drawn) [Monatepil],123%,93.7%
14.6 µM,18.3 µM,O=[N+]([O-])c1c(Cl)cccc1-c1c[nH]cc1Cl [Pyrrolnitrin],54.1%,55.5%
1.64 µM,0.58 µM,CC(=O)[C@]1(O)Cc2c(O)c3c(c(O)c2[C@@H](O[C@H]2C[C@H](N)[C@H](O)[C@H](C)O2)C1)C(=O)c1ccccc1C3=O [Idarubicin hydrochloride],80.9%,78.8%
> 45.8 µM,16.4 µM,CCCCCC(=O)O[C@]1(C(C)=O)CC[C@H]2[C@@H]3CCC4=CC(=O)CC[C@]4(C)[C@H]3CC[C@@]21C [Hydroxyprogesterone caproate],,56.4%
> 45.8 µM,23.1 µM,COc1ccc2c(c1)N(C[C@H](C)CN(C)C)c1ccccc1S2 [Methotrimeprazine maleat salt],,50.8%
18.3 µM,18.3 µM,CN[C@H]1CC[C@@H](c2ccc(Cl)c(Cl)c2)c2ccccc21 [Sertraline hydrochloride],95.4%,97.5%
6.51 µM,4.61 µM,C=CC[C@@H]1/C=C(\C)C[C@H](C)C[C@H](OC)[C@H]2O[C@@](O)(C(=O)C(=O)N3CCCC[C@H]3C(=O)O[C@H](/C(C)=C/[C@@H]3CC[C@@H](O)[C@H](OC)C3)[C@H](C)[C@@H](O)CC1=O)[C@H](C)C[C@@H]2OC [FK-506],78.2%,45.5%
20.6 µM,18.3 µM,Clc1ccc(C(Cn2ccnc2)OCc2ccsc2Cl)c(Cl)c1 (stereo not drawn) [Tioconazole],102%,91.7%
29.1 µM,18.3 µM,CCOC1O[C@H]([C@@H](COCc2ccccc2)OCc2ccccc2)[C@H](OCc2ccccc2)[C@H]1O (stereo partly drawn) [Tribenoside],106%,92.1%
0.517 µM,0.366 µM,COc1cc([C@@H]2c3cc4c(cc3[C@@H](O[C@@H]3O[C@@H]5CO[C@@H](C)O[C@H]5[C@H](O)[C@H]3O)[C@H]3COC(=O)[C@H]23)OCO4)cc(OC)c1OP(=O)(O)O [Etoposide  Phosphate],60.8%,79.9%
> 45.8 µM,29.1 µM,c1cnc2cc3c(cc2n1)[C@@H]1CNC[C@H]3C1 [Varenicline tartrate],,80.4%
16.4 µM,20.6 µM,CC(=O)S[C@@H]1CC2=CC(=O)CC[C@]2(C)[C@H]2CC[C@@]3(C)[C@@H](CC[C@@]34CCC(=O)O4)[C@H]12 [Spironolactone],50.9%,73.6%
> 45.8 µM,18.3 µM,N=C(N)c1ccc(OCCCCCOc2ccc(C(=N)N)cc2)cc1 [Pentamidine isethionate],,60.4%
29.1 µM,18.3 µM,Clc1ccc(CSC(Cn2ccnc2)c2ccc(Cl)cc2Cl)cc1 (stereo not drawn) [Sulconazole nitrate],89.6%,76.4%
> 45.8 µM,23.1 µM,C#C[C@]1(OC(C)=O)CC[C@H]2[C@@H]3CCC4=C[C@@H](OC(C)=O)CC[C@@H]4[C@H]3CC[C@@]21C [Ethynodiol diacetate],,47.1%
> 45.8 µM,29.1 µM,Oc1cccc(O)c1 [Resorcinol],,46.8%
> 45.8 µM,29.1 µM,Cc1ccc(C(=O)c2cc(O)c(O)c([N+](=O)[O-])c2)cc1 [Tolcapone],,84.9%
1.83 µM,2.59 µM,COc1c(C)c2c(c(O)c1C/C=C(\C)CCC(=O)O)C(=O)OC2 [Mycophenolic acid],70.7%,92.4%
5.8 µM,7.3 µM,CCCCCCCCCCCCCCCC[N+](C)(C)C [Hexadecyltrimethylammonium bromide],103%,91.6%
23.1 µM,20.6 µM,O[C@@H](COc1cccc2ncccc12)CN1CCN([C@@H]2c3ccccc3[C@@H]3[C@H](c4ccccc42)C3(F)F)CC1 [Zosuquidar trihydrochloride],141%,105%
18.3 µM,18.3 µM,C1CCC(C(CC2CCCCN2)C2CCCCC2)CC1 (stereo not drawn) [Perhexiline],90.2%,100%
18.3 µM,29.1 µM,Cc1cc(CC(C)CC(C)(C)C)n(O)c(=O)c1 (stereo not drawn) [Piroctone Olamine],81%,87.4%
> 45.8 µM,14.2 µM,Cc1cc2nc3c(=O)[nH]c(=O)nc-3n(C[C@H](O)[C@H](O)[C@H](O)CO)c2cc1C [Riboflavin],,57.7%
